Test system: NOMO1
Experiment: cell viability relative to DMSO control; higher = less cytotoxic
Details: 48 h
In short: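 Viability, reported as a per-plate percentage of DMSO wells with cell-free wells as background, came from CellTiter-Glo One luminescence. Reading took place after 48 h at 37°C. Before that, NOMO1 or SEM (500 cells/well) or P12-Ichikawa (1000 cells/well) leukemia cells, adapted for at least four passages in each medium, were seeded in 1536-well plates (5 μl) and pin-dosed with library compounds in DMSO, 47 μM to 0.79 nM over 11 threefold points.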

[1] = HPLM + 10% dialyzed FBS, 0.000781 µM
[2] = HPLM + 10% dialyzed FBS, 0.00234 µM
[3] = HPLM + 10% dialyzed FBS, 0.00702 µM
[4] = HPLM + 10% dialyzed FBS, 0.0211 µM
[5] = HPLM + 10% dialyzed FBS, 0.0632 µM
[6] = HPLM + 10% dialyzed FBS, 0.19 µM
[7] = HPLM + 10% dialyzed FBS, 0.569 µM
[8] = HPLM + 10% dialyzed FBS, 1.71 µM
[9] = HPLM + 10% dialyzed FBS, 5.12 µM
[10] = HPLM + 10% dialyzed FBS, 15.4 µM
[11] = HPLM + 10% dialyzed FBS, 46.1 µM
[12] = RPMI 5 mM glucose + 10% FBS, 0.000781 µM
[13] = RPMI 5 mM glucose + 10% FBS, 0.00234 µM
[14] = RPMI 5 mM glucose + 10% FBS, 0.00702 µM
[15] = RPMI 5 mM glucose + 10% FBS, 0.0211 µM
[16] = RPMI 5 mM glucose + 10% FBS, 0.0632 µM
[17] = RPMI 5 mM glucose + 10% FBS, 0.19 µM
[18] = RPMI 5 mM glucose + 10% FBS, 0.569 µM
[19] = RPMI 5 mM glucose + 10% FBS, 1.71 µM
[20] = RPMI 5 mM glucose + 10% FBS, 5.12 µM
[21] = RPMI 5 mM glucose + 10% FBS, 15.4 µM
[22] = RPMI 5 mM glucose + 10% FBS, 46.1 µM
[23] = RPMI 5 mM glucose + 10% dialyzed FBS, 0.000781 µM
[24] = RPMI 5 mM glucose + 10% dialyzed FBS, 0.00234 µM
[25] = RPMI 5 mM glucose + 10% dialyzed FBS, 0.00702 µM
[26] = RPMI 5 mM glucose + 10% dialyzed FBS, 0.0211 µM
[27] = RPMI 5 mM glucose + 10% dialyzed FBS, 0.0632 µM
[28] = RPMI 5 mM glucose + 10% dialyzed FBS, 0.19 µM
[29] = RPMI 5 mM glucose + 10% dialyzed FBS, 0.569 µM
[30] = RPMI 5 mM glucose + 10% dialyzed FBS, 1.71 µM
[31] = RPMI 5 mM glucose + 10% dialyzed FBS, 5.12 µM
[32] = RPMI 5 mM glucose + 10% dialyzed FBS, 15.4 µM
[33] = RPMI 5 mM glucose + 10% dialyzed FBS, 46.1 µM

SMILES | cell viability [1] | cell viability [2] | cell viability [3] | cell viability [4] | cell viability [5] | cell viability [6] | cell viability [7] | cell viability [8] | cell viability [9] | cell viability [10] | cell viability [11] | cell viability [12] | cell viability [13] | cell viability [14] | cell viability [15] | cell viability [16] | cell viability [17] | cell viability [18] | cell viability [19] | cell viability [20] | cell viability [21] | cell viability [22] | cell viability [23] | cell viability [24] | cell viability [25] | cell viability [26] | cell viability [27] | cell viability [28] | cell viability [29] | cell viability [30] | cell viability [31] | cell viability [32] | cell viability [33]
C[C@H]1C[C@H]2[C@@H]3CCC4=CC(=O)C=C[C@]4(C)[C@H]3C(=O)C[C@]2(C)[C@@]1(O)C(=O)CO | 89.9% | 80.3% | 81.2% | 103% | 86.3% | 109% | 98.9% | 96% | 86.8% | 99.8% | 83% | 82.7% | 90.2% | 86.9% | 91.6% | 80.8% | 79.9% | 81.3% | 83.8% | 86.5% | 86.3% | 92.2% | 83% | 78.4% | 77.9% | 56.5% | 78.8% | 82.4% | 99.8% | 85.1% | 94.4% | 78% | 93.2%
CCC(=O)OC1CCC2C3CCC/4=C/C(=O)CC[C@@]4(C)C3CC[C@]12C (some centres not stated) | 89.8% | 112% | 128% | 120% | 122% | 118% | 130% | 136% | 136% | 129% | 135% |  |  |  |  |  |  |  |  |  |  |  |  |  |  |  |  |  |  |  |  |  | 
O=[N+]([O-])c1ccc(Nc2ccccc2-c2ccccc2)c2nonc12 | 87.1% | 84.3% | 100% | 92.6% | 81.9% | 100% | 97% | 101% | 106% | 89% | 98.1% | 81.5% | 89.9% | 87.9% | 91.9% | 85.3% | 92.8% | 84.4% | 102% | 95.8% | 94.2% | 89.4% | 76.3% | 82.6% | 88% | 89.8% | 92.5% | 90.2% | 89.2% | 96.1% | 87.5% | 78.2% | 88.7%
CC[C@H](NC(C)C)[C@H](O)c1ccc(O)c2[nH]c(=O)ccc12 | 113% | 103% | 108% | 97.6% | 108% | 113% | 124% | 107% | 108% | 96.8% | 104% | 91.2% | 95.8% | 88.7% | 95.7% | 84.6% | 107% | 101% | 94.5% | 97% | 84.1% | 90.6% | 84.7% | 109% | 104% | 94.4% | 102% | 107% | 96.9% | 95.3% | 94.6% | 87% | 91.2%
CCCOc1ccc2[nH]c(NC(=O)OC)nc2c1 | 116% | 116% | 104% | 102% | 76.5% | 36.9% | 31.7% | 32% | 50.3% | 36.6% | 36.6% | 122% | 116% | 120% | 121% | 98.3% | 28.6% | 21.1% | 19.4% | 26.7% | 22.6% | 25.2% |  |  |  |  |  |  |  |  |  |  | 
COc1ccc(CC2c3cc(OC)c(OC)cc3CC[N+]2(C)CCC(=O)OCCCCCOC(=O)CC[N+]2(C)CCc3cc(OC)c(OC)cc3C2Cc2ccc(OC)c(OC)c2)cc1OC (configuration not stated) | 91% | 98.8% | 116% | 98.5% | 109% | 98.8% | 93.6% | 92.2% | 77.1% | 29.9% | 7.29% | 77.8% | 77.8% | 85.7% | 89.3% | 98.6% | 93% | 85.7% | 97.5% | 87.5% | 65% | 8.84% | 75.5% | 87% | 79.2% | 93.3% | 85.8% | 92% | 84.6% | 90% | 70% | 67.5% | 8.69%
C[C@]12CC[C@@H]3c4ccc(O)cc4CC[C@H]3[C@@H]1CC[C@@H]2O | 124% | 124% | 124% | 112% | 117% | 115% | 117% | 116% | 112% | 56.3% | 46.9% |  |  |  |  |  |  |  |  |  |  |  | 107% | 116% | 105% | 133% | 128% | 116% | 104% | 103% | 104% | 91.8% | 35.6%
CO[C@H]1/C=C/O[C@@]2(C)Oc3c(C)c(O)c4c(O)c(c(/C=N/N5CCN(C)CC5)c(O)c4c3C2=O)NC(=O)/C(C)=C\C=C\[C@H](C)[C@H](O)[C@@H](C)[C@@H](O)[C@@H](C)[C@H](OC(C)=O)[C@@H]1C |  |  |  |  |  |  |  |  |  |  |  | 111% | 123% | 117% | 127% | 129% | 118% | 125% | 123% | 111% | 102% | 98.5% | 118% | 119% | 129% | 115% | 122% | 117% | 104% | 112% | 119% | 96.1% | 79.6%
CCCC1=N[N](C)C2=C1\N=C(/NC2=O)C3=CC(=CC=C3OCC)[S+]([O-])(=O)N4CCN(C)CC4 | 85.1% | 83.9% | 81.6% | 83.7% | 86.1% | 87.9% | 98.8% | 82.4% | 81.1% | 83.6% | 52.8% | 79.5% | 92.9% | 77.4% | 81.6% | 76% | 90.2% | 72% | 83.7% | 77.3% | 79.3% | 76.9% | 94.4% | 88% | 91.9% | 84.5% | 72.3% | 96% | 82.3% | 77.1% | 77.4% | 85.2% | 80.8%

From the supplement of paper PMC11451515
